Measured values reported in patent US20230203060A1 (GENFLEET THERAPEUTICS (SHANGHAI) INC., priority 2020, published 2023).
Read-outs that look alike come from different tables or passages of the source.

Tests used:
KRAS G12C = molecular target: T1, KRAS G12C (Homo sapiens, UniProt P01116, G12C); assay: KRAS G12C NEA-HTRF experiment (SOS1-catalyzed displacement of GDP by GTP); assay type: biochemical
T1 construct: purchased Reactionbiology
Procedure, shortened: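 His-tagged KRAS G12C preloaded with DY647-GDP was preincubated 15 min at 20 °C with compound, then exchanged with SOS1 (0.2 μM working solution) and GTP (200 μM working solution) for 2 h at 20 °C in the dark. HTRF 665/615 nm ratio with anti-His-Tb was normalised to T0 and no-compound controls; IC50 by four-parameter fit.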

[1] = test system: phosphorylated ERK downstream of KRAS G12C in MIA PaCa2 cells; assay: Cell p-ERK detection experiment (HTRF) in MIA PaCa2; assay type: cell-based, human; details: read-out: p-ERK IC50
Procedure, shortened: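 Phospho-ERK (T202/Y204) measured by HTRF after 30 min lysis and 4 h antibody incubation in MIA PaCa2 (KRAS G12C) cells, seeded at 2.5E4 per well and treated 2 h with compounds in 3.16-fold steps, final DMSO 0.1%. IC50 from a four-parameter fit of percent inhibition relative to DMSO and blank wells.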

[2] = MIA PaCa2 cells, 2 hours with compound, Advance ERK phospho-T202/Y204 HTRF kit
[3] = Homo sapiens, MIA PaCa-2, 2 h, MIA PaCa2 cells, 2 hours with compound, Advance ERK phospho-T202/Y204 HTRF kit

T1 sequence (P01116 1-188 isoform P01116-2 G12C): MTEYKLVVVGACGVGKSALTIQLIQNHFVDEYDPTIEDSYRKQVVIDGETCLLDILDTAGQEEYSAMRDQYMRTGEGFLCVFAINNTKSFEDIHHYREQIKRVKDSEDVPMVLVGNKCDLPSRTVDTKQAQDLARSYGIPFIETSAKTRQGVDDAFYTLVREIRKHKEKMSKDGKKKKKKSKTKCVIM

IC50 (KRAS G12C) [nM] | IC50 [1, 2] [nM] | IC50 [1, 3] [nM] | Structure (SMILES) | IC50 ([1]; Homo sapiens, MIA PaCa-2, 2 h) [nM]
7 | 7 | – | C=CC(=O)N1CCN2C(=O)c3c(N4CC(N(C)C5COC5)CC4(C)C)nc(-c4c(O)cccc4F)c(Cl)c3OC[C@H]2C1 (single isomer, unassigned) [Z331-2] | –
– | – | 138 | C=CC(=O)N1CCN2C(=O)c3c(N4CCN(C)[C@H](C)C4)nc(-c4c(O)cccc4F)c(Cl)c3OC[C@H]2C1 [Z235, (6aR)-8-acryloyl-4-chloro-1-((R)-3,4-dimethylpiperazin-1-yl)-3-(2-fluoro-6-hydroxyphenyl)-6,6a,7,8,9,10-hexahydro-12H-pyrazino[2,1-c]pyrido[3,4-f][1,4]oxazepin-12-one] | –
113 | – | 195 | C=CC(=O)N1CCN2C(=O)c3c(N4C[C@H](O)C[C@@H]4C)nc(-c4c(O)cccc4F)c(Cl)c3OC[C@H]2C1 [Z259, (6aR)-8-acryloyl-4-chloro-3-(2-fluoro-6-hydroxyphenyl)-1-((2S,4R)-4-hydroxy-2-methylpyrrolidin-1-yl)-6,6a,7,8,9,10-hexahydro-12H-pyrazino[2,1-c]pyrido[3,4-f][1,4]oxazepin-12-one] | –
64 | – | 43 | C=CC(=O)N1CCN2C(=O)c3c(N4CC(O)CC4(C)C)nc(-c4c(O)cccc4F)c(F)c3OC[C@H]2C1 (stereo partly drawn) [Z256, (6aR)-8-acryloyl-4-fluoro-3-(2-fluoro-6-hydroxyphenyl)-1-(4-hydroxy-2,2-dimethylpyrrolidin-1-yl)-6,6a,7,8,9,10-hexahydro-12H-pyrazino[2,1-c]pyrido[3,4-f][1,4]oxazepin-12-one] | –
19.4 | 26 | – | C=CC(=O)N1CCN2C(=O)c3c(N4CC(N(C)CC(F)F)CC4(C)C)nc(-c4ccccc4F)c(Cl)c3OC[C@H]2C1 (stereo partly drawn) [Z659] | –
46.5 | 61 | – | C=CC(=O)N1CCN2C(=O)c3c(N4CC(N5CCOCC5)CC4(C)C)nc(-c4ccccc4F)c(Cl)c3OC[C@H]2C1 (single isomer, unassigned) [Z468-2] | –
46.3 | 33 | – | C=CC(=O)N1CCN2C(=O)c3c(N4CCN(C)C[C@@H]4C)nc(-c4c(O)cccc4Cl)c(Cl)c3OC[C@H]2C1 (single isomer, unassigned) [Z455-2] | –
– | – | 128 | C=CC(=O)N1CCN2C(=O)c3c(N(C)c4c(C)ccnc4C(C)C)nc(-c4c(O)cccc4F)c(Cl)c3OC[C@H]2C1 [Z6, (6aR)-8-acryloyl-4-chloro-3-(2-fluoro-6-hydroxyphenyl)-1-((2-isopropyl-4-methylpyridin-3-yl)(methyl)amino)-6,6a,7,8,9,10-hexahydro-12H-pyrazino[2,1-c]pyrido[3,4-f][1,4]oxazepin-12-one] | –
33 | – | 91 | C=CC(=O)N1CCN2C(=O)c3c(N4C[C@@H](O)C[C@@H]4C)nc(-c4c(O)cccc4F)c(Cl)c3OC[C@H]2C1 [Z260, (6aR)-8-acryloyl-4-chloro-3-(2-fluoro-6-hydroxyphenyl)-1-((2S,4S)-4-hydroxy-2-methylpyrrolidin-1-yl)-6,6a,7,8,9,10-hexahydro-12H-pyrazino[2,1-c]pyrido[3,4-f][1,4]oxazepin-12-one] | –
– | – | 163 | C=CC(=O)N1CCN2C(=O)c3c(Nc4c(C)ccnc4C(C)C)nc(-c4c(O)cccc4F)c(Cl)c3OC[C@H]2C1 [Z5, (6aR)-8-acryloyl-4-chloro-3-(2-fluoro-6-hydroxyphenyl)-1-((2-isopropyl-4-methylpyridin-3-yl)amino)-6,6a,7,8,9,10-hexahydro-12H-pyrazino[2,1-c]pyrido[3,4-f][1,4]oxazepin-12-one] | –
58 | 154 | – | C=CC(=O)N1CCN2C(=O)c3c(C4NCCN5C(=O)CCC45C)nc(-c4c(O)cccc4F)c(Cl)c3OC[C@H]2C1 (stereo partly drawn) [Z337, (6aR)-8-acryloyl-4-chloro-3-(2-fluoro-6-hydroxyphenyl)-1-(8a-methylhexahydropyrrolo[1,2-a]pyrazin-6 (2H)-one-1-yl)-6,6a,7,8,9,10-hexahydro-12H-pyrazino[2,1-c]pyrido[3,4-f][1,4]oxazepin-12-one] | –
– | – | 154 | C=CC(=O)N1CCN2C(=O)c3c(N4CCOC5(CC5)C4)nc(-c4c(O)cccc4F)c(Cl)c3OC[C@H]2C1 [Z63, (6aR)-8-acryloyl-4-chloro-1-(4-oxa-7-azaspiro[2.5]octan-7-yl)-3-(2-fluoro-6-hydroxyphenyl)-6,6a,7,8,9,10-hexahydro-12H-pyrazino[2,1-c]pyrido[3,4-f][1,4]oxazepin-12-one] | –
88 | – | 88 | C=CC(=O)N1CCN2C(=O)c3c(N4CC[C@@H]4C)nc(-c4c(O)cccc4F)c(Cl)c3OC[C@H]2C1 [Z68, (6aR)-8-acryloyl-1-((S)-2-methylazetidin-1-yl)-4-chloro-3-(2-fluoro-6-hydroxyphenyl)-6,6a,7,8,9,10-hexahydro-12H-pyrazino[2,1-c]pyrido[3,4-f][1,4]oxazepin-12-one] | –
139 | 173 | – | C=CC(=O)N1CCN2C(=O)c3c(N4CC(=O)N(C)CC4C)nc(-c4c(O)cccc4F)c(Cl)c3OC[C@H]2C1 (single isomer, unassigned) [Z221-2] | –
111 | 21 | – | C=CC(=O)N1CCN2C(=O)c3c(N4CCN(C)C(C)C4C)nc(-c4c(O)cccc4F)c(Cl)c3OC[C@H]2C1 (stereo partly drawn) [Z308a, (6aR)-8-acryloyl-4-chloro-3-(2-fluoro-6-hydroxyphenyl)-1-(2,3,4-trimethylpiperazin-1-yl)-6,6a,7,8,9,10-hexahydro-12H-pyrazino[2,1-c]pyrido[3,4-f][1,4]oxazepin-12-one] | –
167 | – | – | C=CC(=O)N1CCN2C(=O)c3c(N4CCNC(C)C4C)nc(-c4c(O)cccc4F)c(Cl)c3OC[C@H]2C1 (stereo partly drawn) [Z308, (6aR)-8-acryloyl-4-chloro-1-(2,3-dimethylpiperazin-1-yl)-3-(2-fluoro-6-hydroxyphenyl)-6,6a,7,8,9, 10-hexahydro-12H-pyrazino[2,1-c]pyrido[3,4-f][1,4]oxazepin-12-one] | –
128 | 196 | – | C=CC(=O)N1CCN2C(=O)c3c(N4C[C@H](N(C)C)CC4(C)C)nc(-c4ccccc4)c(Cl)c3OC[C@H]2C1 (single isomer, unassigned) [Z655-2] | –
36 | – | 23 | C=CC(=O)N1CCN2C(=O)c3c(N4CC(=O)N(C)CC4C)nc(-c4c(O)cccc4F)c(Cl)c3OC[C@H]2C1 (stereo partly drawn) [Z221, (6aR)-8-acryloyl-4-chloro-1-(2,4-dimethyl-5-oxopiperazin-1-yl)-3-(2-fluoro-6-hydroxyphenyl)-6,6a,7,8,9,10-hexahydro-12H-pyrazino[2,1-c]pyrido[3,4-f][1,4]oxazepin-12-one] | –
44 | – | 136 | C=CC(=O)N1CCN2C(=O)c3c(N4C[C@H](O)CC4(C)C)nc(-c4c(O)cccc4F)c(Cl)c3OC[C@H]2C1 (single isomer, unassigned) [Z82] | –
14 | 19 | – | C=CC(=O)N1CCN2C(=O)c3c(N4CC(=O)N(C)CC4C)nc(-c4c(O)cccc4F)c(Cl)c3OC[C@H]2C1 (single isomer, unassigned) [Z221-1] | –
150 | – | 59 | C=CC(=O)N1CCN2C(=O)c3c(N4CCN(C)C(C)(C)C4)nc(-c4c(O)cccc4F)c(Cl)c3OC[C@H]2C1 [Z261, (6aR)-8-acryloyl-4-chloro-3-(2-fluoro-6-hydroxyphenyl)-1-(3,3,4-trimethylpiperazin-1-yl)-6,6a,7,8,9,10-hexahydro-12H-pyrazino[2,1-c]pyrido[3,4-f][1,4]oxazepin-12-one] | –
511 | – | 538 | C=CC(=O)N1CCN2C(=O)c3c(N4C[C@H](NC)CC4(C)C)nc(-c4ccccc4F)c(Cl)c3OC[C@H]2C1 (single isomer, unassigned) [Z661-2] | –
5 | – | 6 | C=CC(=O)N1CCN2C(=O)c3c(N4CC(N(C)C5COC5)CC4(C)C)nc(-c4c(O)cccc4F)c(Cl)c3OC[C@H]2C1 (single isomer, unassigned) [Z331-1] | –
176 | – | – | C=CC(=O)N1CCN2C(=O)c3c(OC4CCN(C)CC4)nc(-c4c(O)cccc4F)c(Cl)c3OC[C@H]2C1 [Z61, (6aR)-8-acryloyl-4-chloro-3-(2-fluoro-6-hydroxyphenyl)-1-((1-methylpiperidin-4-yl)oxy)-6,6a,7,8,9,10-hexahydro-12H-pyrazino[2,1-c]pyrido[3,4-f][1,4]oxazepin-12-one] | –
79 | – | 79 | C=CC(=O)N1CCN2C(=O)c3c(NC(C)(C)C)nc(-c4c(O)cccc4F)c(Cl)c3OC[C@H]2C1 [Z69, (6aR)-8-acryloyl-1-(tert-butylamino)-4-chloro-3-(2-fluoro-6-hydroxyphenyl)-6,6a,7,8,9,10-hexahydro-12H-pyrazino[2,1-c]pyrido[3,4-f][1,4]oxazepin-12-one] | –
138 | – | – | C=CC(=O)N1CCN2C(=O)c3c(NC(C)C)nc(-c4c(O)cccc4F)c(Cl)c3OC[C@H]2C1 [Z75, (6aR)-8-acryloyl-4-chloro-1-(isopropylamino)-3-(2-fluoro-6-hydroxyphenyl)-6,6a,7,8,9,10-hexahydro-12H-pyrazino[2,1-c]pyrido[3,4-f][1,4]oxazepin-12-one] | –
173 | – | – | C=CC(=O)N1CCN2C(=O)c3c(N4CCOC5CC54)nc(-c4c(O)cccc4F)c(Cl)c3OC[C@H]2C1 (stereo partly drawn) [Z76, (6aR)-8-acryloyl-4-chloro-1-(2-oxa-5-azabicyclo[4.1.0]heptan-5-yl)-3-(2-fluoro-6-hydroxyphenyl)-6,6a,7,8,9,10-hexahydro-12H-pyrazino[2,1-c]pyrido[3,4-f][1,4]oxazepin-12-one] | –

Structure (SMILES) | IC50 (KRAS G12C) [nM] | IC50 [1, 2] [nM] | IC50 [1, 3] [nM] | IC50 ([1]; Homo sapiens, MIA PaCa-2, 2 h) [nM]
C=CC(=O)N1CCN2C(=O)c3c(N4CCN(CC)C[C@@H]4C)nc(-c4c(O)cccc4F)c(Cl)c3OC[C@H]2C1 [Z236] | 113 | – | – | 25
